Tested on: SEM cells
Assay: cell viability relative to DMSO control; higher = less cytotoxic
Settings: 48 h
In short: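 Library compounds in DMSO were pin-dosed into 1536-well plates (5 μl) holding NOMO1 or SEM (500 cells/well) or P12-Ichikawa (1000 cells/well) leukemia cells, across an 11-point threefold series of 47 μM to 0.79 nM. Each cell line had been adapted for at least four passages in each medium. CellTiter-Glo One luminescence was read after 48 h at 37°C. Viability is the per-plate percentage relative to DMSO wells, with cell-free wells as background.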

[1] = HPLM + 10% dialyzed FBS, 0.000781 µM
[2] = HPLM + 10% dialyzed FBS, 0.00234 µM
[3] = HPLM + 10% dialyzed FBS, 0.00702 µM
[4] = HPLM + 10% dialyzed FBS, 0.0211 µM
[5] = HPLM + 10% dialyzed FBS, 0.0632 µM
[6] = HPLM + 10% dialyzed FBS, 0.19 µM
[7] = HPLM + 10% dialyzed FBS, 0.569 µM
[8] = HPLM + 10% dialyzed FBS, 1.71 µM
[9] = HPLM + 10% dialyzed FBS, 5.12 µM
[10] = HPLM + 10% dialyzed FBS, 15.4 µM
[11] = HPLM + 10% dialyzed FBS, 46.1 µM
[12] = RPMI 5 mM glucose + 10% FBS, 0.000781 µM
[13] = RPMI 5 mM glucose + 10% FBS, 0.00234 µM
[14] = RPMI 5 mM glucose + 10% FBS, 0.00702 µM
[15] = RPMI 5 mM glucose + 10% FBS, 0.0211 µM
[16] = RPMI 5 mM glucose + 10% FBS, 0.0632 µM
[17] = RPMI 5 mM glucose + 10% FBS, 0.19 µM
[18] = RPMI 5 mM glucose + 10% FBS, 0.569 µM
[19] = RPMI 5 mM glucose + 10% FBS, 1.71 µM
[20] = RPMI 5 mM glucose + 10% FBS, 5.12 µM
[21] = RPMI 5 mM glucose + 10% FBS, 15.4 µM
[22] = RPMI 5 mM glucose + 10% FBS, 46.1 µM
[23] = RPMI 5 mM glucose + 10% dialyzed FBS, 0.000781 µM
[24] = RPMI 5 mM glucose + 10% dialyzed FBS, 0.00234 µM
[25] = RPMI 5 mM glucose + 10% dialyzed FBS, 0.00702 µM
[26] = RPMI 5 mM glucose + 10% dialyzed FBS, 0.0211 µM
[27] = RPMI 5 mM glucose + 10% dialyzed FBS, 0.0632 µM
[28] = RPMI 5 mM glucose + 10% dialyzed FBS, 0.19 µM
[29] = RPMI 5 mM glucose + 10% dialyzed FBS, 0.569 µM
[30] = RPMI 5 mM glucose + 10% dialyzed FBS, 1.71 µM
[31] = RPMI 5 mM glucose + 10% dialyzed FBS, 5.12 µM
[32] = RPMI 5 mM glucose + 10% dialyzed FBS, 15.4 µM
[33] = RPMI 5 mM glucose + 10% dialyzed FBS, 46.1 µM

Row | Structure (SMILES) | cell viability [1] [%] | cell viability [2] [%] | cell viability [3] [%] | cell viability [4] [%] | cell viability [5] [%] | cell viability [6] [%] | cell viability [7] [%] | cell viability [8] [%] | cell viability [9] [%] | cell viability [10] [%] | cell viability [11] [%] | cell viability [12] [%] | cell viability [13] [%] | cell viability [14] [%] | cell viability [15] [%] | cell viability [16] [%] | cell viability [17] [%] | cell viability [18] [%] | cell viability [19] [%] | cell viability [20] [%] | cell viability [21] [%] | cell viability [22] [%] | cell viability [23] [%] | cell viability [24] [%] | cell viability [25] [%] | cell viability [26] [%] | cell viability [27] [%] | cell viability [28] [%] | cell viability [29] [%] | cell viability [30] [%] | cell viability [31] [%] | cell viability [32] [%] | cell viability [33] [%]
1 | CC(C)[C@]12O[C@H]1[C@@H]3O[C@@]34[C@@]5(C)CC\C6=C(COC6=O)/[C@@H]5C[C@@H]7O[C@]47[C@@H]2O | 88.8 | 8.24 | 7.05 | 7.2 | 8.43 | 7.98 | 7.67 | 7.16 | 5.34 | 3.24 | 2.08 | 70.6 | 5.86 | 5.11 | 4.85 | 5.84 | 5.43 | 4.78 | 4.12 | 3.56 | 2.23 | 1.15 | 107 | 6.37 | 6.75 | 6.32 | 7.36 | 7.3 | 6.55 | 6.33 | 4.78 | 3.05 | 2.21
2 | OC1=C(Cl)C=C(N\C2=C(\C(=O)NC2=O)C3=C(C=CC=C3)[N+]([O-])=O)C=C1 | 78.4 | 92.9 | 105 | 96.9 | 93 | 102 | 98 | 115 | 86.9 | 56.3 | 6 | 103 | 109 | 106 | 123 | 109 | 120 | 104 | 104 | 93.6 | 60.8 | 25.2 | 94.7 | 99.1 | 98.2 | 99.4 | 113 | 98.9 | 116 | 110 | 88.2 | 62.8 | 27.2
3 | c1coc(CNc2ncnc3nc[nH]c23)c1 | 112 | 101 | 112 | 103 | 116 | 118 | 123 | 110 | 130 | 127 | 103 | 110 | 120 | 116 | 121 | 124 | 110 | 119 | 120 | 143 | 119 | 105 | 105 | 115 | 106 | 114 | 111 | 114 | 97.4 | 109 | 115 | 119 | 96.1
4 | CC1(C)CCC(C)(C)c2cc(NC(=O)c3ccc(C(=O)O)cc3)ccc21 | 88.1 | 107 | 98.5 | 107 | 115 | 101 | 124 | 110 | 104 | 120 | 97.4 | 100 | 93.3 | 111 | 115 | 119 | 111 | 113 | 111 | 116 | 123 | 105 | 90.9 | 92.4 | 84.7 | 95.6 | 91.9 | 93 | 103 | 94.6 | 105 | 101 | 87.7
5 | Clc1ccc(C(c2ccccc2Cl)C(Cl)Cl)cc1 (centres undefined) | 119 | 116 | 120 | 121 | 139 | 36.1 | 117 | 126 | 33.2 | 109 | 85.9 | 116 | 121 | 111 | 110 | 112 | 36.7 | 137 | 106 | 12.6 | 97.6 | 75.1 | – | – | – | – | – | – | – | – | – | – | –
6 | O=C1c2ccccc2-c2n[nH]c3cccc1c23 | 82.9 | 101 | 121 | 97.9 | 99 | 104 | 5.3 | 102 | 112 | 76.8 | 37.4 | 82 | 107 | 97.3 | 103 | 106 | 107 | 6.25 | 98.2 | 90.5 | 63.6 | 21.2 | 86.6 | 93.9 | 99.1 | 105 | 91 | 116 | 5.93 | 92.9 | 103 | 67.4 | 26.7
7 | CC1=CC/2=C(C=C1C)N(C[C@@H](O)[C@@H](O)[C@@H](O)CO)C/3=N/C(=O)NC(=O)C3=N2 | 117 | 122 | 126 | 118 | 113 | 117 | 129 | 116 | 115 | 127 | 105 | 85.8 | 98.8 | 86.8 | 98.6 | 93.3 | 97.8 | 92.3 | 77.9 | 77.5 | 90.3 | 85.5 | 110 | 127 | 107 | 106 | 110 | 107 | 118 | 113 | 117 | 129 | 102
8 | C[C@@H]1CC[C@@]2(CC[C@]3(C)\C(=C/C[C@@H]4[C@@]5(C)C[C@@H](O)[C@H](O)[C@@](C)(CO)[C@@H]5CC[C@@]34C)[C@@H]2[C@H]1C)C(O)=O | 65.5 | 75.1 | 80.4 | 86.6 | 76.5 | 90.6 | 99.1 | 91.9 | 96.5 | 110 | 115 | 114 | 110 | 107 | 120 | 115 | 106 | 128 | 127 | 110 | 120 | 7.07 | 87.9 | 93.8 | 105 | 96 | 103 | 76.4 | 66.6 | 46.1 | 229 | 158 | 127
9 | C#CCC(Cc1cnc2nc(N)nc(N)c2n1)c1ccc(C(=O)N[C@@H](CCC(=O)O)C(=O)O)cc1 (some centres undefined) | 110 | 113 | 114 | 119 | 47 | 48 | 39.2 | 36.3 | 31.9 | 38.1 | 35.1 | 113 | 122 | 120 | 118 | 90.6 | 73.3 | 74.1 | 71.9 | 66.7 | 68.1 | 68 | 105 | 114 | 110 | 107 | 27.4 | 23.5 | 24.3 | 23 | 20.3 | 22.9 | 22.3
10 | Clc1ccc(CCC(Cn2ccnc2)Sc2c(Cl)cccc2Cl)cc1 (centres undefined) | 73 | 71.5 | 77.3 | 83.5 | 72.8 | 95 | 76.3 | 77.3 | 80.1 | 76.8 | 61.2 | 78.7 | 88 | 97.7 | 89.7 | 85.7 | 83.6 | 101 | 100 | 92.6 | 86.1 | 52.5 | 78.8 | 88.7 | 100 | 92.5 | 82 | 103 | 89.4 | 77.4 | 76.9 | 85.3 | 57.3
11 | CCN(CC)CCCC(C)Nc1ccnc2cc(Cl)ccc12 (centres undefined) | 108 | 113 | 116 | 121 | 122 | 128 | 116 | 117 | 134 | 127 | 102 | 102 | 117 | 119 | 104 | 109 | 111 | 100 | 129 | 118 | 106 | 94.4 | 105 | 98.6 | 103 | 103 | 99.9 | 115 | 109 | 129 | 104 | 87 | 92.4
12 | CCC(=O)O[C@@]1(CC[C@H]2[C@@H]3CCC/4=C/C(=O)CC[C@]4(C)[C@H]3CC[C@]12C)C(=O)CO | 95.3 | 100 | 101 | 110 | 109 | 98.8 | 86.7 | 57.4 | 46.1 | 27.3 | 23.7 | 63.3 | 83.6 | 86 | 84 | 84.8 | 76.1 | 51 | 35.3 | 24.3 | 14.1 | 12.7 | 95.1 | 103 | 99.9 | 88.5 | 98 | 91.7 | 79.7 | 47.2 | 27.6 | 19.5 | 13.8
13 | CC(=O)N(O)CCCCCNC(=O)CCC(=O)N(O)CCCCCNC(=O)CCC(=O)N(O)CCCCCN.C[S+](=O)([O-])O | 74.3 | 86.8 | 77.7 | 26.2 | 25.3 | 18.8 | 22.5 | 18.2 | 23.9 | 23.2 | 23.2 | 96.8 | 54.4 | 30.4 | 18.5 | 20.6 | 20.9 | 20.6 | 14.4 | 18.5 | 15.9 | 16.3 | 81 | 82.9 | 94.4 | 30.2 | 25.4 | 19.3 | 18.7 | 20.2 | 19.3 | 23.6 | 23.7
14 | Cc1nnc(C(=O)NC(C)(C)c2nc(C(=O)NCc3ccc(F)cc3)c(O)c(=O)n2C)o1 | 107 | 111 | 116 | 102 | 101 | 123 | 113 | 108 | 104 | 108 | 107 | 96.7 | 101 | 99.2 | 120 | 125 | 93.8 | 107 | 80.8 | 90.9 | 97 | 111 | 105 | 106 | 109 | 122 | 109 | 117 | 107 | 109 | 93.9 | 98.9 | 110
15 | C/C=C(\C)C(=O)N[C@@H](c1ccccc1)[C@@H](O)C(=O)O[C@H]1C[C@@]2(O)[C@@H](OC(=O)c3ccccc3)[C@@H]3[C@]4(OC(C)=O)CO[C@@H]4C[C@H](O)[C@@]3(C)C(=O)[C@H](OC(C)=O)C(=C1C)C2(C)C | 34 | 24.3 | 33.2 | 20.6 | 19.2 | 19.8 | 14.9 | 19.6 | 19.9 | 15.9 | 20.5 | 45.4 | 22.3 | 23.3 | 18.4 | 14.1 | 15.5 | 15.4 | 14.9 | 14.3 | 12.5 | 12.2 | 32.4 | 26.1 | 25 | 17.5 | 16.2 | 13.6 | 13.1 | 14.7 | 16.6 | 15.5 | 16.2
